From patent publication US20170240864A1, “METHODS TO GENERATE PANCREATIC BETA CELLS FROM SKIN CELLS” (UNIVERSITY OF IOWA RESEARCH FOUNDATION, priority 2016, published 2017)
Entries after “also recorded” stand apart in the source; their conditions may differ.

Key:
[1] = test system: 5-methylcytosine content of gDNA of T1D iPS cells; test: Dot blot for 5-methylcytosine on gDNA; assay type: cell-based, human
Protocol: FIGS. 14A-14B. Selection of the optimal dose of 5-aza-DC to demethylate iPS cells while ensuring maximal cell viability. FIG. 14A) Every cell type has a unique tolerance to 5-aza-DC, which is toxic at high doses. In order to identify an optimal dose of 5-aza-DC that would maintain integrity of the cells while demethylating effectively, a dose screen experiment was conducted on T1D iPS cells (n=2), observing the quality of the colonies and degree of cell death over 4 days after 18 hours of treatment with various doses of 5-aza-DC. […] FIG. 14B) To confirm that those low doses would still demethylate cells, a dot blot for 5-methylcytosine was performed on gDNA isolated from untreated T1D iPS cells or iPS cells that were treated with 1 nM or 10 nM 5-aza-DC (n=3).
To detect the effectiveness of demethylation treatment, dot blots were performed on genomic DNA (gDNA) samples isolated from demethylated and nondemethylated control iPS cells to determine levels of 5-methylcytosine (5-MC). gDNA was isolated using the DNeasy Blood & Tissue Kit (Qiagen, Valencia, Calif.). […] Finally, HRP signal was detected with a 5 minute incubation at room temperature in Amersham ECL Prime solution (Catalog Number: RPN2232, GE Healthcare, Pittsburgh, Pa.) and processed via X-ray films.

[2] = test system: T1D iPS cells differentiating into DE cells; test: Definitive endoderm marker flow cytometry after demethylation (CXCR4, Sox17, PDGFR-α); assay type: cell-based, human
Source text: FIG. 15. Demethylation on DO of differentiation arrests cells in a CXCR4+ PDGFRα+ Sox17− mesendodermal state. In order to identify the optimal time point at which demethylation should be initiated, two parallel differentiations of T1D iPS cells into DE cells were established. In one differentiation, the culture was exposed to 5-aza-DC on day 0 (which is the day that DE differentiation is initiated), whereas the other culture was demethylated at day 4 of differentiation (which is the last day of DE culture). At the end of the differentiations, the efficacy of DE cell differentiation was determined by studying the expression of CXCR4, PDGFR-α, and Sox17. Undifferentiated iPS cells (red plot) served as a negative control for all of these cell markers. […] In contrast, demethylation of the cells on day 4 (blue plot) generated >90% CXCR4+ Sox17+ PDGFR-α− cells, representing true DE cells. […] Besides, after formation of the DE, the cells have a higher proliferative rate. Thus, temporal control of the demethylation treatment ensures enhanced differentiation outcomes.
(§1) After completing 4 days of differentiation in DE differentiation media, the cells were treated with fresh media supplemented with 5-aza-DC. The 5-aza-DC was treated for 18 hours, which spanned the last day of DE differentiation, before being washed with warm DMEM F/12 three times and harvested as described in the next section for initiating 3D differentiation into pancreatic precursor cells.
For assessment of DE differentiation efficiency, cells from D5 of differentiation (end of stage 1) were incubated at room temperature for 2-5 minutes with TrypLE Express (Invitrogen, Grand Island, N.Y.), dissociated into a single cell suspension, filtered through a 70 μm mesh and washed with 1×PBS (Invitrogen, Grand Island, N.Y.) before being distributed into FACS tubes. […]

[3] = test system: T1D DE cells (T1D iPS cell-derived); test: Pdx1 flow cytometry at end of Stage 4, T1D cultures; assay type: cell-based, human; settings: T1D DE cells demethylated on day 4 for 18 h
Protocol: as §1
(§2) For assessment of expression of pancreatic transcription factors (Pdx1, Nkx6.1 and NeuroD1), matrigel-seeded differentiating cell clusters on differentiation D15 (end of stage 4) were recovered by treatment with Dispase (Catalog Number: 354235, BD Biosciences, San Jose, Calif.) for 5 minutes at 37° C., followed by gentle suspension to further break down the matrigel. After washing with 1×PBS and centrifugation, the cell clusters were incubated with TrypLE Express for 5-10 minutes at room temperature. Following gentle resuspension and centrifugation, the cells were permeabilized using methanol as described below. The cells were fixed in 2% paraformaldehyde in PBS for 10 minutes at 37° C., followed by centrifugation, and resuspension of the vortexed cells in 1 mL of chilled Perm Buffer III (Catalog Number: 558050, BD Biosciences, San Jose, Calif.). The cells were incubated for 30 minutes on ice in sealed tubes. […]

ND iPS cells [4] = test: Pdx1 flow cytometry, ND cultures; assay type: cell-based, human; settings: 10 nM for 18 h on day 4
Protocol: (§3) FIGS. 18A-18B. […] To address whether demethylation enhances the yield of Pdx1+ cells and insulin+ cells from ND iPS cells, in parallel, differentiations of ND iPS cells, treated with or without 10 nM 5-aza-DC for 18 h on day 4 of differentiation (n=2) were established. Controls for staining were iPS cells (negative) and βTC3 mouse insulinoma cells (positive). […] Thus, demethylation enhances the differentiation into IPCs of specifically T1D iPS cells but not ND iPS cells. This is likely because there are specific gene loci on T1D cells that are aberrantly methylated, which is corrected by transient 5-aza-DC treatment.
as §2, with “below.” for “below. The cells were fixed in 2% paraformaldehyde in PBS for 10 minutes at 37° C., followed by centrifugation, and resuspension of the vortexed cells in 1 mL of chilled Perm Buffer III (Catalog Number: 558050, BD Biosciences, San Jose, Calif.). The cells were incubated for 30 minutes on ice in sealed tubes.”

[5] = test system: T1D DE cells (T1D iPS cell-derived); test: Insulin and glucagon flow cytometry at end of Stage 5, T1D cultures; assay type: cell-based, human; settings: for number of glucagon-expressing cells: T1D cultures, concentration-dependent
Protocol: as §1
For assessment of expression of pancreatic hormones insulin and glucagon, matrigel-seeded differentiating cell clusters on differentiation D27 (end of stage 5) were recovered by treatment with Dispase (Catalog Number: 354235, BD Biosciences, San Jose, Calif.) for 5 minutes at 37° C., followed by gentle suspension to further break down the matrigel. After washing with 1×PBS and centrifugation, the cell clusters were incubated with TrypLE Express for 5-10 minutes at room temperature. Following gentle resuspension and centrifugation, the cells were permeabilized via saponin using the BD Cytofix/Cytoperm Kit (Catalog Number: 554714, BD Biosciences, San Jose, Calif.). For insulin staining, the cells were incubated with anti-inulin-PE for 30 minutes in the dark at room temperature before being washed and resuspended in 1×PBS for flow cytometric analysis. For glucagon staining, the cells were incubated with purified rabbit anti-human glucagon for 30 minutes in the dark at room temperature before being washed and incubated with anti-rabbit APC (1:100) for an additional 30 minutes in the dark at room temperature. Subsequently, the cells were washed and resuspended in 1×PBS for flow cytometric analysis.

ND iPS cells [6] = test: Insulin flow cytometry at end of Stage 5, ND cultures; assay type: cell-based, human
Protocol: as §3
For assessment of expression of pancreatic hormones insulin and glucagon, matrigel-seeded differentiating cell clusters on differentiation D27 (end of stage 5) were recovered by treatment with Dispase (Catalog Number: 354235, BD Biosciences, San Jose, Calif.) for 5 minutes at 37° C., followed by gentle suspension to further break down the matrigel. After washing with 1×PBS and centrifugation, the cell clusters were incubated with TrypLE Express for 5-10 minutes at room temperature. Following gentle resuspension and centrifugation, the cells were permeabilized via saponin using the BD Cytofix/Cytoperm Kit (Catalog Number: 554714, BD Biosciences, San Jose, Calif.). […]

[7] = test system: T1D iPS cell-derived cell clusters; test: Cluster morphology and dithizone staining of T1D IPC cultures; assay type: cell-based, human
Protocol: Freshly prepared dithizone solution was used for all experiments. First, 20 mg of dithizone (Catalog Number: D5130, Sigma-Aldrich, St. Louis, Mo.) was added to 0.6 mL of 95% ethanol in a 15 mL conical tube. Subsequently, 1-5 drops of ammonium hydroxide was added and the resulting orange stock mixture was vortexed thoroughly until completely dissolved. 0.3 mL of this stock solution was dispensed in 99.7 mL of 1×PBS and the pH was adjusted to 7.4 with 1N HCl. Islets (supplied by the IIDP) or picked IPC clusters were added to separate wells each containing 200 μL of the final dithizone solution in a 96 well plate. The cell clusters were incubated for 2-5 minutes before images were captured using a standard light microscope (Nikon Eclipse, TS100) attached to a color camera.
A full differentiation of T1D iPS cells into IPCs was initiated, demethylating the DE cells on day 4 for 18 hours before transferring them onto matrigel. A striking impact of the demethylation treatment in the T1D cultures was observed. Typically, T1D iPS cells gave rise to a disorganized mix of cysts and spheroids, with a dominant presence of hollow cysts. […] Next, these cell clusters were stained with dithizone, which when positive points to the presence of insulin Shiroi et al., 2002).

[8] = test system: Human iPS cell-derived IPCs; test: Mitochondria stress test (oxygen consumption rate); assay type: cell-based; settings: low glucose (2.8 mM)
Protocol: Oxygen consumption rate (OCR) was measured by using an intact-cell respirometer designed for adherent cells (Seahorse Bioscience, North Billerica, Mass.). Human iPS cell-derived IPCs were grown in special 24-well plates designed for respirometer analyses. OCR was determined in assay medium consisting of medium M199 lacking sodium bicarbonate for 60 minutes. Before analysis, IPCs within individual wells were exposed to either, low glucose (2.8 mM), high glucose (20 mM), high glucose (20 mM)+Nifedipine. […] The FCCP concentration used in these studies was determined by titration with differing amounts of the uncoupler by using the least amount required for maximal uncoupling in cells unexposed to MTQAs. OCR (pmol per minute per microgram of DNA) was determined as the average number recorded during time periods defined as intervals between the above sequential injections. Basal OCR was determined as respiration before injection of any compounds minus non-mitochondrial OCR. OCRATP was determined as basal OCR minus OCR after oligomycin injection. OCR accountable by the proton leak was calculated as OCR in the presence of oligomycin minus non-mitochondrial OCR. Maximal uncoupled respiration was calculated as OCR after FCCP minus non-mitochondrial OCR. […] ECAR was quantified simply as the recorded acidification rate during the respiratory conditions delineated above.

[9] = demethylation on day 4 of differentiation

## Nc1ncn([C@H]2C[C@H](O)[C@@H](CO)O2)c(=O)n1 [5-aza-DC, 5-aza-2′-deoxycytidine]
[1]; 1 nM
  demethylation (5-methylcytosine dot blot): effectively demethylate
[1]; 10 nM
  demethylation (5-methylcytosine dot blot): effectively demethylate
[2]; demethylation on day 0 of differentiation
  marker phenotype of resulting cells: arrested in the immature CXCR4^+ PDGFRα^+ Sox17^− mesendodermal state; also recorded: CXCR4+ PDGFR-α+ Sox17−
[2]; [9]
  CXCR4+ Sox17+ PDGFR-α− cells: > 90%
  marker phenotype of resulting cells: pure population of CXCR4^+ Sox17^+ PDGFRα^− DE cells
[3]
  Pdx1+ cells at the end of Stage 4: > 95%
ND iPS cells [4]
  yield of Pdx1+ cells, treated versus untreated: not significantly different
[5]; T1D cultures treated with 5-Aza-DC, n=5
  insulin-expressing cells: 56.7-59.4%
[5]
  number of glucagon-expressing cells: nearly all the glucagon secreting cells are gone
[5]; listed as 5-Aza-DC
  number of glucagon-expressing cells: drastic decline
[5]; T1D, 10 nM, repeated experiments
  insulin+ cells, highest measured in some cultures: ≤ 65%
[5]; T1D, dose of 10 nM
  cells expressing insulin: 56%
[5]; T1D-1 DE cells, pooled experiments, untreated n=3, demethylated n=5
  augmentation of yield of IPCs versus untreated: ~4 fold
ND iPS cells [6]; 10 nM for 18 h on day 4
  yield of insulin-expressing cells, treated versus untreated: equivalent yield
ND iPS cells [6]; unchanged after treatment
  yield of Insulin+ cells at the end of Stage 5: 25%
[7]; T1D DE cells treated on day 4, both doses (1 nM, 10 nM)
  cluster morphology: promoted the formation of compact cell clusters that uniquely resembled human islets; also recorded: promotes the formation of compact clusters
[7]; T1D cultures treated with 5-aza-DC
  dithizone staining of clusters: strong red color

## CC(C)Cn1c(=O)n(C)c(=O)c2[nH]cnc21 [IBMX, 3-isobutyl-1-methylxanthine]
[8]
  effect on oxygen consumption: could not be increased; also recorded: could not be elevated
